The source of these data is publication PMC11178787, “Development of a natural product optimization strategy for inhibitors against MraY, a promising antibacterial target” (Nature Communications, 2024).

Series [1] relates to T1, Enterococcus faecalis 29.
T1 construct: 29
The experiment in a line: microbe, parasite or virus in culture. Details: CLSI broth microdilution MIC in MHB-II. The conditions noted are these: Enterococcus faecalis, 29, 18 h, read-out: MIC. The procedure, abridged:
(§1)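 Broth microdilution per CLSI in MHB-II, inoculum 5 × 10^5 cfu/mL. Compounds were serially 2-fold diluted in DMSO at 100-fold final concentration and added to give under 1% DMSO; plates incubated 37 °C for 18 h before MIC reading. Values are the highest of three trials, or from a single trial for some compounds.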

Series [2] relates to T2, Enterococcus faecalis 25.
T2 construct: 25
The experiment in a line: microbe, parasite or virus in culture. The conditions noted are these: Enterococcus faecalis, 25, 18 h, read-out: MIC. Details: CLSI broth microdilution MIC in MHB-II. Summed up: as §1

The subject of series [3] is T3, Staphylococcus aureus #2931.
T3 construct: #2931
Briefly: microbe, parasite or virus in culture. To be noted: Staphylococcus aureus, 18 h, read-out: MIC. Details: CLSI broth microdilution MIC in MHB-II. The procedure, abridged:
as §1

In series [4] the test system is T4, Enterococcus faecalis 23.
T4 construct: 23
The experiment in a line: microbe, parasite or virus in culture. Also noted: CLSI broth microdilution MIC in MHB-II. The conditions noted are these: Enterococcus faecalis, 23, 18 h, read-out: MIC. Summed up: as §1

Series [5] is described as follows: in vitro. Also noted: WST-8 cell viability assay in HepG2 cells. The conditions noted are these: human, hepg2 cells; read-out: IC50. As to the method:
Cells were regularly passed to maintain exponential growth. HepG2 cells were sowed by 1.0 × 10^4 cells for each well in 96-well plate and cultured at 37 °C under 5% CO2 in air for 24 h. The cells were treated with a solution of test compounds in DMSO at various concentration and incubated at 37 °C under 5% CO2 in air for 24 h. After that, the WST-8 (Dojindo) cell proliferation assay was used. Cell viability was indicated as a percentage of the negative control (cells treated with DMSO only) and that value was fixed at 100%.

The subject of series [6] is T5, S. aureus ATCC 29213.
T5 construct: ATCC 29213
Briefly: microbe, parasite or virus in culture. Also noted: CLSI broth microdilution MIC in MHB-II, single trial. The conditions noted are these: Staphylococcus aureus, ATCC29213, 18 h. As to the method:
(§2) MICs were determined by a microdilution broth method as recommended by the CLSI with MHB-II. For MICs of stable analogues, a 2-fold dilution of each compound was prepared in DMSO at 100-fold of the final concentration. The strains were inoculated with 5 × 10^5 cfu/mL in 96-well plates (each 100 μL/well), and 1 μL of DMSO solutions of the samples were added (contained less than 1% DMSO). The plates were incubated at 37 °C for 18 h and then MICs were determined. MICs of stable analogues in Table 1 were the highest value in three trials. MICs in Supplementary Table 1 were determined in one trial.

The test system of series [7] is T6, E. faecium ATCC 35667.
T6 construct: ATCC 35667
The experiment in a line: microbe, parasite or virus in culture. Also noted: CLSI broth microdilution MIC in MHB-II, single trial. To be noted: Enterococcus faecium, ATCC35667, 18 h. As for the experimental part:
as §2

In series [8] the test system is T7, E. faecium(VRE) ATCC 51858.
T7 construct: ATCC 51858 (VRE)
The experiment in a line: microbe, parasite or virus in culture. Also noted: CLSI broth microdilution MIC in MHB-II, single trial. The conditions noted are these: Enterococcus faecium, 18 h. As to the method:
as §2

Series [9] relates to T8, E. faecium(VRE) ATCC 51559.
T8 construct: ATCC 51559 (VRE)
The experiment in a line: microbe, parasite or virus in culture. Details: CLSI broth microdilution MIC in MHB-II, single trial. The conditions noted are these: Enterococcus faecium, 18 h. As for the experimental part: as §2

Series [10] concerns T9, Staphylococcus aureus MRSA JE2.
T9 construct: JE2 (MRSA)
Briefly: microbe, parasite or virus in culture. To be noted: 18 h. Details: CLSI broth microdilution MIC in MHB-II, single trial. As for the experimental part: as §2

For series [11], the system named is T10, E. faecalis(VRE) ATCC 51299.
T10 construct: ATCC 51299 (VRE)
Briefly: microbe, parasite or virus in culture. Also noted: CLSI broth microdilution MIC in MHB-II, single trial. To be noted: Enterococcus faecalis, 18 h. As to the method:
as §2

The structures appear in SMILES notation. In brackets after ≈: the same amount, converted by molar mass. Where two headings read alike, the source gives them in different places.

With `CCCCCCCCCCCCCCCC(=O)N[C@@H](CCCNC(=N)N)C(=O)NCc1cccc(CN[C@H](C(=O)O)[C@H](O[C@@H]2O[C@H](CN)[C@@H](O)[C@H]2O)[C@H]2O[C@@H](n3ccc(=O)[nH]c3=O)[C@H](O)[C@@H]2O)c1` [compound 4, analogue 4], the MIC in series [1] was below 0.06 mg/L; in [2], 0.25 mg/L (≈ 0.26 µM); in [3], 1 mg/L (≈ 1.04 µM); in series [4] it was 0.13 mg/L (≈ 0.135 µM); in [6] (read-out: 4 MIC) it was 1 mg/L (≈ 1.04 µM); in series [7] (read-out: 4 MIC), 0.5 mg/L (≈ 0.52 µM). Also, the MIC in series [8] (read-out: 4 MIC) is 2 mg/L (≈ 2.08 µM); in series [9] (read-out: 4 MIC), 1 mg/L (≈ 1.04 µM); in series [10] (read-out: 4 MIC), 2 mg/L (≈ 2.08 µM); in [11] (read-out: 4 MIC), 0.25 mg/L (≈ 0.26 µM). Besides, the CC50 at 24 h in series [5] was determined as 19 µM.

Turning to `CCCCCCCCCCCCCCCC(=O)N[C@@H](CCCCN)C(=O)Nc1ccc(CN[C@H](C(=O)O)[C@H](O[C@@H]2O[C@H](CN)[C@@H](O)[C@H]2O)[C@H]2O[C@@H](n3ccc(=O)[nH]c3=O)[C@H](O)[C@@H]2O)cc1` [compound 5, analogue 5], the MIC in series [1] is below 0.06 mg/L; in [2] it was 0.25 mg/L (≈ 0.272 µM); in series [3], 0.25 mg/L (≈ 0.272 µM); in series [4], 0.13 mg/L (≈ 0.141 µM); in [6] (read-out: 5 MIC) it was 0.5 mg/L (≈ 0.543 µM); in [7] (read-out: 5 MIC), 0.25 mg/L (≈ 0.272 µM). Besides, the MIC worked out at 1 mg/L (≈ 1.09 µM) in [8] (read-out: 5 MIC), 0.25 mg/L (≈ 0.272 µM) in series [9] (read-out: 5 MIC), 1 mg/L (≈ 1.09 µM) in [10] (read-out: 5 MIC) and 0.25 mg/L (≈ 0.272 µM) in [11] (read-out: 5 MIC). For the same compound, in series [5], the CC50 at 24 h came out at 22 µM.

`CCCCCCCCCCCCCCCC(=O)N[C@@H](CCCCN)C(=O)NCc1cccc(CN[C@H](C(=O)O)[C@H](O[C@@H]2O[C@H](CN)[C@@H](O)[C@H]2O)[C@H]2O[C@@H](n3ccc(=O)[nH]c3=O)[C@H](O)[C@@H]2O)c1` [compound 2, analogue 2]: the MIC in series [1] was 0.13 mg/L (≈ 0.139 µM); in series [2] it was 0.25 mg/L (≈ 0.268 µM); in series [3] it was 0.5 mg/L (≈ 0.535 µM); in series [4] it was 0.25 mg/L (≈ 0.268 µM); in series [6] (read-out: 2 MIC), 1 mg/L (≈ 1.07 µM); in series [7] (read-out: 2 MIC), 0.5 mg/L (≈ 0.535 µM). The MIC was found to be 2 mg/L (≈ 2.14 µM) in series [8] (read-out: 2 MIC), 0.5 mg/L (≈ 0.535 µM) in series [9] (read-out: 2 MIC), 1 mg/L (≈ 1.07 µM) in series [10] (read-out: 2 MIC) and 0.5 mg/L (≈ 0.535 µM) in [11] (read-out: 2 MIC). Also, the CC50 at 24 h in series [5] amounted to 16 µM.
